Results taken from US8993714B2, “Streptavidin macromolecular adaptor and complexes thereof” (Imiplex LLC, priority 2007, dated 2015).

Columns and labels:
[1] = Stability on 4-12% Bis-TRIS MOPS SDS PAGE after heating at 70° C. with reducing agent and SDS; type: physicochemical; conditions: 70° C. for 10 minutes with reducing agent and SDS
Experimental: We established optimal conditions for complex formation. One issue involved the existence of stable dimeric, trimeric and higher aggregates of streptavidin in most preparations (Sano & Cantor 1990b; Kurzban et al. 1991; Waner et al. 2004). We found the aggregates of liganded and unliganded streptavidin stable to heating at 70° C. and the liganded streptavidin aggregates also stable in SDS PAGE running buffers (FIG. 33). We exploited these features in a gel assay to help assess complexation in both denaturing and native gels (see FIG. 33). The left and middle panels of FIG. 33 show complexes of SAMA and streptavidin analyzed on 4-12% Bis-TRIS gels with 3-(N-Morpholino)propanesulfonic acid (MOPS) SDS running buffer. […] Prior to loading, samples were heated at 70° C. for 10 minutes together with reducing agent and SDS. Lanes are numbered on the top and the sample identity (SAMA and linking reagent) given below. Mark12 MW standards (Invitrogen) are in Lane 1. […] Schematics on the left indicate the electrophoretic mobilities of control molecules including the streptavidin monomer, derivatized and underivatized SAMA monomers, the streptavidin:biotin tetramer and higher order aggregates of the streptavidin:biotin tetramer. Brackets and schematics on the right indicate probable electrophoretic mobilities of SAMA:SAV complexes. […]

[2] = target: T1, streptavidin (Streptomyces avidinii, UniProt P22629); experiment: Ligand binding to the streptavidin biotin binding site (dissociation constant)
T1 sequence (P22629 25-183): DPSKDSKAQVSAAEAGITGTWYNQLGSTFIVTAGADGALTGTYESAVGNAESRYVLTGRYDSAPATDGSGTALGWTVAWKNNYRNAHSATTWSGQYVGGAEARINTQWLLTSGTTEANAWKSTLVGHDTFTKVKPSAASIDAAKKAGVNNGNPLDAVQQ
Excerpt: A strut can be formed from streptavidin (FIG. 1), a tetrameric protein of 60 kiloDalton molecular weight secreted by the bacterium Streptomyces avidinii. […] Part d designates two of the four bound biotins on the same “side” of the tetramer in space filling representation. Part e is a representation of the streptavidin tetramer surface showing overall molecular shape.
For example, the first and/or the second moiety can be an iminobiotin group. […] However, at pH values of less than or equal to about 4, the imino group on iminobiotin becomes charged, so that it is displaced from the streptavidin binding site. Thus, a structure can be temporarily formed using an iminobiotin-functionalized crosslinking reagent. […] Then, by lowering the pH below 4, the iminobiotin bonds can release, and components of the temporary structure can be washed away. Thus, a bifunctional crosslinking reagent with an iminobiotin group as the first and/or second moiety can be used to form a temporary scaffold, which assists in the construction of a permanent nanostructure.
More generally, the dyes can be used to monitor the assembly of streptavidin-linked nanostructures.
MALDI or ESI MS can be used to characterize the species. […] FIGS. 34c and 34d show the structures of the 1:1 and 1:2 Azido-ATP-linked SAV:SAMA complexes. Spectroscopic methods can be used to monitor SAV:SAMA complex formation using a dye displacement approach and using DLS alone or combined with static light scattering.

[3] = target: T1, streptavidin; conditions: neutral pH; read-out: iminobiotin dissociation constant; cited from earlier work

With “streptavidin: tetrameric protein of 60 kiloDalton secreted by Streptomyces avidinii with 4 biotin binding sites” the “folded state under gel conditions” value [1] was “denatured”.

In the case of `N=C1N[C@H]2[C@H](CS[C@H]2CCCCC(=O)O)N1` [iminobiotin], the “iminobiotin dissociation constant relative to biotin-streptavidin dissociation constant, orders of magnitude greater” value [2] is given as 3 orders of magnitude and the Kd [3] is given as ~10 pM.

In the case of `O=C(O)c1ccccc1N=Nc1ccc(O)cc1` [HABA, 4′-hydroxyazobenzene-2-carboxylic acid], the “binds more weakly to streptavidin than biotin” value [2] is reported as 8 orders of magnitude and the “binds more weakly to streptavidin than iminobiotin” value [2] is reported as 5 orders of magnitude.
